IC50 data for one molecule are collected here from ChEMBL document CHEMBL1131574, “Specific and irreversible cyclopeptide inhibitors of dipeptidyl peptidase IV activity of the T-cell activation antigen CD26” (J Med Chem, 1998).

This assay concerns the target Dipeptidyl peptidase 4 (Homo sapiens, UniProt P27487). Description: Inhibitory activity against hydrolysis of Gly-Pro-pNa by CD26 (Dipeptidyl peptidase IV) purified from CEM H01 cells. Format: cell-free, CCRF-CEM.

Chain of Dipeptidyl peptidase 4 (P27487 whole entry): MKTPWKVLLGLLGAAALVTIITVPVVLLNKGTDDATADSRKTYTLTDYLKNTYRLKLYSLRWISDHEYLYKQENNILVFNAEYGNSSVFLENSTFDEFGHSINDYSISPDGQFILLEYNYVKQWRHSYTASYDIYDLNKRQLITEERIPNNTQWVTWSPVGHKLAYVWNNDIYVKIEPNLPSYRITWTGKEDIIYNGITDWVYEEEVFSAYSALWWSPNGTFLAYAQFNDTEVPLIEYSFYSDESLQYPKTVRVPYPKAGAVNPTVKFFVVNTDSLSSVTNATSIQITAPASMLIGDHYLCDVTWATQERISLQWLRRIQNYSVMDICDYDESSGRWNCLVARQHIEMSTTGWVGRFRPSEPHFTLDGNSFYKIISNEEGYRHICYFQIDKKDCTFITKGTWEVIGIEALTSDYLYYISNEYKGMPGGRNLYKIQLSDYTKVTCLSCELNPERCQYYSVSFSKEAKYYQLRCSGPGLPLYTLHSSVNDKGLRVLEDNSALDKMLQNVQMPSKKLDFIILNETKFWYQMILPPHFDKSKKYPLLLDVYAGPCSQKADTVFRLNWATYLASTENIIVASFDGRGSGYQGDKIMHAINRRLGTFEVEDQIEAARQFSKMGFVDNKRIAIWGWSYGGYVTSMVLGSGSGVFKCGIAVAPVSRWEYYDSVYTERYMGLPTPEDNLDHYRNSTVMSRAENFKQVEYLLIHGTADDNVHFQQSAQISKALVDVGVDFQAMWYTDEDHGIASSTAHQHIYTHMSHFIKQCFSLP

What is called IC50 is the concentration that inhibits the measured activity by half. A higher IC50 goes with weaker potency. `CCCCCCCC[S+](CCCCCCCC)Cc1ccc2cc1C(=O)NCC(=O)NCC(=O)NCCCC[C@H](N)C(=O)N1CCC[C@H]1C(=O)N2`: half-maximal inhibition (IC50) required 30 nM.
